PubChem BioAssay (NCI)
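Values below derive from 48-hour exposures of cells grown in 96-well plates, with endpoints linearly interpolated between the two concentrations bracketing the appropriate inhibition level. GI50: concentration for 50% inhibition of growth. TGI denotes the concentration required for complete inhibition of growth.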

Legend:
Assay in all cases: DTP human tumour cell line panel, 48 h
HOP-62 NSCLC = test system: HOP-62 NSCLC
HL-60(TB) leukemia = test system: HL-60(TB) leukemia
SF-539 CNS = test system: SF-539 CNS
OVCAR-8 ovarian = test system: OVCAR-8 ovarian
SN12C renal = test system: SN12C renal
BT-549 breast = test system: BT-549 breast
SW-620 colon = test system: SW-620 colon
RXF 393 renal = test system: RXF 393 renal
CCRF-CEM leukemia = test system: CCRF-CEM leukemia
RPMI-8226 leukemia = test system: RPMI-8226 leukemia

## Cc1ccc(S(=O)(=O)N2CCc3cc(O)c([N+](=O)[O-])cc32)cc1
HOP-62 NSCLC
  TGI: > 100 µM
HL-60(TB) leukemia
  TGI: > 100 µM
SF-539 CNS
  TGI: > 100 µM
OVCAR-8 ovarian
  TGI: > 100 µM
SN12C renal
  TGI: > 100 µM
BT-549 breast
  TGI: > 100 µM
SW-620 colon
  TGI: > 100 µM
RXF 393 renal
  TGI: > 100 µM
CCRF-CEM leukemia
  TGI: > 100 µM

## CO[C@H](C)[C@](O)(C(=O)OCC1=CCN2CC[C@@H](O)[C@H]12)C(C)C
HOP-62 NSCLC
  TGI: > 100 µM
SF-539 CNS
  TGI: > 100 µM
RPMI-8226 leukemia
  TGI: > 100 µM
OVCAR-8 ovarian
  TGI: > 100 µM
SN12C renal
  TGI: > 100 µM
BT-549 breast
  TGI: > 100 µM
SW-620 colon
  TGI: > 100 µM
CCRF-CEM leukemia
  TGI: > 100 µM

## Oc1ccc(C[C@@H]2CN[C@H](Cc3ccc(O)c(Br)c3)CN2)cc1
HOP-62 NSCLC
  TGI: > 100 µM
HL-60(TB) leukemia
  TGI: > 100 µM
SF-539 CNS
  TGI: > 100 µM
OVCAR-8 ovarian
  TGI: > 100 µM
SN12C renal
  TGI: > 100 µM
BT-549 breast
  TGI: > 100 µM
SW-620 colon
  TGI: > 100 µM
RXF 393 renal
  TGI: > 100 µM
CCRF-CEM leukemia
  TGI: > 100 µM

## CC1OC2OC3C(OCC(O)C3O)OC(=O)[C@]34CCC(C)(C)CC3C3=CCC5[C@@]6(C)C[C@H](O)[C@H](OC7OC(CO)C(O)C(O)C7OC7OC(COC(=O)CC(C)(O)CC(=O)OC1C(OC1OC(CO)C(O)C(O)C1O)C2O)C(O)C(O)C7O)[C@@](C)(CO)C6CC[C@@]5(C)[C@]3(C)CC4 (stereo not given in full)
HOP-62 NSCLC
  TGI: 3.13 µM
HL-60(TB) leukemia
  TGI: 3.13 µM
SF-539 CNS
  TGI: 15.5 µM
RPMI-8226 leukemia
  TGI: 10.2 µM
OVCAR-8 ovarian
  TGI: 13.1 µM
SN12C renal
  TGI: 14.8 µM
BT-549 breast
  TGI: 19.3 µM
SW-620 colon
  TGI: 11.2 µM
CCRF-CEM leukemia
  TGI: 14 µM

## CCOP(=O)(COCCn1nc(Br)c(=O)[nH]c1=O)OCC
HOP-62 NSCLC
  TGI: > 100 µM
HL-60(TB) leukemia
  TGI: > 100 µM
SF-539 CNS
  TGI: > 100 µM
RPMI-8226 leukemia
  TGI: > 100 µM
OVCAR-8 ovarian
  TGI: > 100 µM
SN12C renal
  TGI: > 100 µM
SW-620 colon
  TGI: > 100 µM
RXF 393 renal
  TGI: > 100 µM
CCRF-CEM leukemia
  TGI: > 100 µM

## O=C(O)C12C3C4(C(=O)O)C1C1(C(=O)O)C2C3(C(=O)O)C41 (stereo not given)
HOP-62 NSCLC
  TGI: > 100 µM
HL-60(TB) leukemia
  TGI: > 100 µM
SF-539 CNS
  TGI: > 100 µM
RPMI-8226 leukemia
  TGI: > 100 µM
OVCAR-8 ovarian
  TGI: > 100 µM
SN12C renal
  TGI: > 100 µM
BT-549 breast
  TGI: > 100 µM
SW-620 colon
  TGI: > 100 µM
CCRF-CEM leukemia
  TGI: > 100 µM

## COc1cc(/C=C2/C(=O)N(C(=O)c3ccccc3O)N=C2C)ccc1O
HOP-62 NSCLC
  TGI: > 38.9 µM
HL-60(TB) leukemia
  TGI: > 52.9 µM
RPMI-8226 leukemia
  TGI: > 100 µM
OVCAR-8 ovarian
  TGI: > 100 µM
SN12C renal
  TGI: > 39.1 µM
SW-620 colon
  TGI: > 100 µM
CCRF-CEM leukemia
  TGI: > 100 µM

## Cn1c2ccccc2c2c3c(=O)[nH][nH]c(=O)c3c3c4ccccc4n(C)c3c21
HOP-62 NSCLC
  TGI: > 100 µM
SF-539 CNS
  TGI: > 100 µM
RPMI-8226 leukemia
  TGI: > 100 µM
OVCAR-8 ovarian
  TGI: > 100 µM
SN12C renal
  TGI: > 100 µM
BT-549 breast
  TGI: > 100 µM
SW-620 colon
  TGI: > 100 µM
RXF 393 renal
  TGI: > 100 µM
CCRF-CEM leukemia
  TGI: > 100 µM

## CC12CCC(=O)[C@@]1(C)CCCC2=O (stereo not given in full)
HOP-62 NSCLC
  TGI: > 100 µM
HL-60(TB) leukemia
  TGI: > 100 µM
SF-539 CNS
  TGI: > 100 µM
OVCAR-8 ovarian
  TGI: > 100 µM
SN12C renal
  TGI: > 100 µM
BT-549 breast
  TGI: > 100 µM
SW-620 colon
  TGI: > 100 µM
RXF 393 renal
  TGI: > 100 µM
CCRF-CEM leukemia
  TGI: > 100 µM

## COc1ccc(C(=C2C(=O)OC(=O)C2=C(C)C)c2ccc(OC)cc2)cc1
HOP-62 NSCLC
  TGI: > 100 µM
HL-60(TB) leukemia
  TGI: 84.3 µM
SF-539 CNS
  TGI: > 100 µM
RPMI-8226 leukemia
  TGI: > 100 µM
OVCAR-8 ovarian
  TGI: > 100 µM
SN12C renal
  TGI: > 100 µM
BT-549 breast
  TGI: > 100 µM
SW-620 colon
  TGI: > 100 µM
RXF 393 renal
  TGI: > 100 µM

## CC1=CC(O)CC(C)(C)C1/C=C/C(C)=C/C=C/C(C)=C/C=C/C=C(C)/C=C/C=C(C)/C=C/C1=C(C)CC(O)CC1(C)C (stereo not given)
HL-60(TB) leukemia
  TGI: > 100 µM
RPMI-8226 leukemia
  TGI: > 100 µM
OVCAR-8 ovarian
  TGI: 39.5 µM
BT-549 breast
  TGI: 33.1 µM
SW-620 colon
  TGI: 34.8 µM
RXF 393 renal
  TGI: 33.2 µM
CCRF-CEM leukemia
  TGI: > 100 µM

## COC(=O)c1ccc2cc(O)ccc2c1
HOP-62 NSCLC
  TGI: > 100 µM
SF-539 CNS
  TGI: > 100 µM
RPMI-8226 leukemia
  TGI: > 100 µM
OVCAR-8 ovarian
  TGI: > 100 µM
SN12C renal
  TGI: > 100 µM
BT-549 breast
  TGI: > 100 µM
SW-620 colon
  TGI: > 100 µM
RXF 393 renal
  TGI: > 100 µM
CCRF-CEM leukemia
  TGI: > 100 µM

## NC(=O)c1ncn(C2OC(CO)C(O)C2O)c1NC(=S)NC(=O)c1ccccc1 (stereo not given)
HOP-62 NSCLC
  TGI: > 100 µM
HL-60(TB) leukemia
  TGI: > 100 µM
SF-539 CNS
  TGI: > 100 µM
RPMI-8226 leukemia
  TGI: > 100 µM
OVCAR-8 ovarian
  TGI: > 100 µM
SN12C renal
  TGI: > 100 µM
SW-620 colon
  TGI: > 100 µM
RXF 393 renal
  TGI: > 100 µM
CCRF-CEM leukemia
  TGI: > 100 µM

## O=C(O)C(CS)N=Cc1nc(-c2ccccc2)oc1O (stereo not given)
HOP-62 NSCLC
  TGI: > 100 µM
HL-60(TB) leukemia
  TGI: > 100 µM
SF-539 CNS
  TGI: > 100 µM
RPMI-8226 leukemia
  TGI: > 100 µM
OVCAR-8 ovarian
  TGI: > 100 µM
SN12C renal
  TGI: > 100 µM
SW-620 colon
  TGI: > 100 µM
RXF 393 renal
  TGI: > 100 µM
CCRF-CEM leukemia
  TGI: > 100 µM

## O=C1c2c(Br)sc(Br)c2[C@H]2OC(=S)N[C@@H]12
HOP-62 NSCLC
  TGI: 30.7 µM
SF-539 CNS
  TGI: 31.2 µM
RPMI-8226 leukemia
  TGI: 40.3 µM
OVCAR-8 ovarian
  TGI: 12 µM
SN12C renal
  TGI: 8.7 µM
BT-549 breast
  TGI: 23.8 µM
SW-620 colon
  TGI: 5.84 µM
RXF 393 renal
  TGI: 8.8 µM

## Cc1ccc(N2C(=O)/C(=C3\Sc4c(nc(C)n(C)c4=O)N3c3ccccc3)SC2=S)cc1
HL-60(TB) leukemia
  TGI: > 100 µM
SF-539 CNS
  TGI: 33.7 µM
RPMI-8226 leukemia
  TGI: > 100 µM
OVCAR-8 ovarian
  TGI: 91.3 µM
SN12C renal
  TGI: > 100 µM
SW-620 colon
  TGI: > 100 µM
RXF 393 renal
  TGI: 53.9 µM
CCRF-CEM leukemia
  TGI: > 100 µM

## O=C(O)Cn1c[n+](NC(=O)Cc2ccccc2)cn1
HOP-62 NSCLC
  TGI: > 10 µM
SF-539 CNS
  TGI: > 10 µM
RPMI-8226 leukemia
  TGI: > 10 µM
OVCAR-8 ovarian
  TGI: > 10 µM
SN12C renal
  TGI: > 10 µM
BT-549 breast
  TGI: > 10 µM
SW-620 colon
  TGI: > 10 µM
CCRF-CEM leukemia
  TGI: > 10 µM

## COc1ccc(CCn2ccc(=O)c(O)c2C)cc1OC
HOP-62 NSCLC
  TGI: > 100 µM
HL-60(TB) leukemia
  TGI: 81.9 µM
SF-539 CNS
  TGI: 73.9 µM
RPMI-8226 leukemia
  TGI: 96.9 µM
OVCAR-8 ovarian
  TGI: > 100 µM
BT-549 breast
  TGI: > 100 µM
SW-620 colon
  TGI: > 100 µM

## CC1=NN(c2cccc(Cl)c2)C2(C1=Cc1ccc(N(C)C)cc1)C(Cl)C(=O)N2c1nc2ccccc2s1 (stereo not given)
HOP-62 NSCLC
  TGI: > 100 µM
HL-60(TB) leukemia
  TGI: > 100 µM
SF-539 CNS
  TGI: > 100 µM
RPMI-8226 leukemia
  TGI: > 100 µM
OVCAR-8 ovarian
  TGI: > 100 µM
SW-620 colon
  TGI: > 100 µM
RXF 393 renal
  TGI: 46 µM
CCRF-CEM leukemia
  TGI: > 100 µM

## CC(=O)OC1COC(N2c3ccccc3[C@@H]3CCc4c([nH]c5ccccc45)[C@@H]32)C(OC(C)=O)C1OC(C)=O (mixture of isomers)
HOP-62 NSCLC
  TGI: > 100 µM
RPMI-8226 leukemia
  TGI: > 100 µM
SN12C renal
  TGI: > 100 µM
BT-549 breast
  TGI: > 100 µM
SW-620 colon
  TGI: > 100 µM
CCRF-CEM leukemia
  TGI: > 100 µM

## O=C1c2cc3c(cc2-c2c1c1cc(F)c(F)cc1c(=O)n2C[C@H](O)CO)OCO3
HOP-62 NSCLC
  GI50: 0.0225 µM
  TGI: 0.186 µM
HL-60(TB) leukemia
  GI50: 0.0426 µM
  TGI: > 100 µM
SF-539 CNS
  GI50: 0.0288 µM
  TGI: 0.14 µM
OVCAR-8 ovarian
  GI50: 0.0724 µM
  TGI: > 100 µM
SN12C renal
  GI50: 0.033 µM
  TGI: 0.324 µM
BT-549 breast
  GI50: 0.0727 µM
  TGI: 2.22 µM
SW-620 colon
  GI50: 0.0431 µM
  TGI: 1.98 µM
RXF 393 renal
  GI50: 0.121 µM
  TGI: 0.335 µM
CCRF-CEM leukemia
  GI50: 0.0349 µM
  TGI: > 100 µM

## O=C1CN(c2ccccc2)C(=O)C1C(=O)Nc1ccc(Cl)c(Cl)c1 (stereo not given)
HOP-62 NSCLC
  TGI: 6.33 µM
HL-60(TB) leukemia
  TGI: 9.66 µM
SF-539 CNS
  TGI: 16.3 µM
SN12C renal
  TGI: 17.1 µM
SW-620 colon
  TGI: 11.9 µM
CCRF-CEM leukemia
  TGI: > 100 µM
